System: control human primary myoblasts
Assay: Expression microarray of primary myoblasts transduced with lentivirus carrying DUX4-fl, DUX4-s or GFP
Description: Primary human myoblasts were collected and cultured as previously described (Snider et al., 2010). Primary myoblasts were maintained at or below 70% confluency for proliferation. For differentiation, cells were allowed to reach 95-100% confluency in growth medium. Once confluency was reached, the cells were changed to differentiation medium (F10 media supplemented with 1% horse serum, 10 μg/mL insulin, and 10 μg/mL transferrin, penicillin/streptomycin) and maintained for 4 days. Human RD cells were grown in DMEM in 10% bovine calf serum (Hyclone) and penicillin/streptomycin. The primary myoblasts were transduced with lentivirus carrying DUX-fl, DUX4- or GFP (MOI=15).
Expression microarrays were performed on the transduced cells at 24 hours after transduction as follows. […] Samples were analyzed by Illumina Human Whole Genome microarrays. Probe intensities were corrected, normalized, and summarized by the Lumi package of Bioconductor (Du et al., 2008). Differentially expressed genes were identified by the LIMMA package of Bioconductor (Wettenhall and Smyth, 2004). Gene set enrichment analysis (GSEA) was performed using the Bioconductor GOstats package (Falcon and Gentleman, 2007).

[1] = 3-fold criteria (>1.584 log2-fold change and FDR<0.01)

## DUX4-fl: full-length DUX4 protein (SEQ ID NO:110), expressed from lentiviral or pCS2 vectors or in vitro translated
  number of genes with increased expression: 1071 genes
2-fold change and FDR<0.01 vs lenti-GFP, 24 hours after transduction
  number of genes with decreased expression: 837 genes
[1]
  number of genes decreased: 244 genes
  number of genes increased: 466 genes
Refseq BQ437417, cultured human skeletal muscle
  BQ437417 (no symbol given) expression fc: −2.514
Refseq NM_000020.1
  fc of ACVRL1 (expression array): −1.01
Refseq NM_000064.1
  fc of C3 (expression array): −1
Refseq NM_000067.1
  CA2 expression fc: 6.091
Refseq NM_000088.3
  fc of COL1A1 (expression array): −0.2992
Refseq NM_000099.2
  CST3 fc: −1.131
Refseq NM_000118.1
  ENG fc: −1.105
Refseq NM_000156.4
  fc of GAMT (expression array): −1.021
Refseq NM_000158.2
  GBE1 fc: −1.129
Refseq NM_000202.3
  fc of IDS (expression array): −1.025
Refseq NM_000217.2
  KCNA1 expression fc: 1.832
Refseq NM_000231.1
  SGCG expression fc: 1.863
Refseq NM_000270.1
  NP expression fc: 6.961
Refseq NM_000314.4
  fc of PTEN (expression array): −1.031
Refseq NM_000341.2
  SLC3A1 expression fc: 2.736
Refseq NM_000346.2
  SOX9 expression fc: 3.099
Refseq NM_000430.2
  fc of PAFAH1B1 (expression array): −0.3583
Refseq NM_000517.3
  HBA2 expression fc: 4.721
Refseq NM_000518.4
  fc of HBB (expression array): −0.354
Refseq NM_000558.3
  HBA1 expression fc: 4.787
Refseq NM_000584.2, cultured human skeletal muscle
  IL8 expression fc: −3.885
Refseq NM_000585.2
  fc of IL15 (expression array): −1.013
Refseq NM_000593.5, cultured human skeletal muscle
  TAP1 expression fc: −3.265
Refseq NM_000600.1
  fc of IL6 (expression array): −0.8024
Refseq NM_000628.3
  IL10RB fc: −1.108
Refseq NM_000690.2
  fc of ALDH2 (expression array): −1.011
Refseq NM_000700.1
  fc of ANXA1 (expression array): −1.001
Refseq NM_000775.2
  fc of CYP2J2 (expression array): −0.06948
Refseq NM_000820.1
  fc of GAS6 (expression array): −1.026
Refseq NM_000902.3
  fc of MME (expression array): −1.046
Refseq NM_000918.3
  P4HB fc: −1.109
Refseq NM_000959.3
  PTGFR fc: −1.089
Refseq NM_001067.2
  TOP2A fc: −1.157
Refseq NM_001071.1
  TYMS fc: −1.125
Refseq NM_001078.2, cultured human skeletal muscle
  VCAM1 expression fc: −3.014
Refseq NM_001141.2
  ALOX15B fc: −1.071
Refseq NM_001150.1, cultured human skeletal muscle
  ANPEP expression fc: −2.118
Refseq NM_001179.3
  ART3 expression fc: 4.363
Refseq NM_001218.3, cultured human skeletal muscle
  CA12 expression fc: −2.629
Refseq NM_001225.3
  fc of CASP4 (expression array): −1.059
Refseq NM_001251.1
  CD68 fc: −1.091
Refseq NM_001288.4
  CLIC1 fc: −1.083
Refseq NM_001338.3
  CXADR expression fc: 2.494
Refseq NM_001386.4
  DPYSL2 fc: −1.1
Refseq NM_001425.1
  EMP3 fc: −1.139
Refseq NM_001459.2
  FLT3LG fc: −1.065
Refseq NM_001511.1, cultured human skeletal muscle
  CXCL1 expression fc: −3.523
Refseq NM_001523.1
  fc of HAS1 (expression array): −1.063
Refseq NM_001535.2
  PRMT2 fc: −1.119
Refseq NM_001543.3
  NDST1 fc: −1.069
Refseq NM_001547.4, cultured human skeletal muscle
  IFIT2 expression fc: −4.315
Refseq NM_001548.3, cultured human skeletal muscle
  IFIT1 expression fc: −4.379
Refseq NM_001549.2, cultured human skeletal muscle
  IFIT3 expression fc: −3.857
Refseq NM_001550.2
  IFRD1 expression fc: 2.99
Refseq NM_001552.2, cultured human skeletal muscle
  IGFBP4 expression fc: −1.937
Refseq NM_001565.2
  fc of CXCL10 (expression array): −0.8766
Refseq NM_001605.2
  AARS fc: −1.067
Refseq NM_001610.1
  ACP2 fc: −1.126
Refseq NM_001656.3
  TRIM23 expression fc: 2.235
Refseq NM_001669.2
  ARSD fc: −1.079
Refseq NM_001698.1
  fc of AUH (expression array): −1.06
Refseq NM_001710.4, cultured human skeletal muscle
  CFB expression fc: −5.623
Refseq NM_001733.4, cultured human skeletal muscle
  C1R expression fc: −2.829
Refseq NM_001753.3
  CAV1 fc: −1.097
Refseq NM_001754.3
  fc of RUNX1 (expression array): −0.2108
Refseq NM_001759.2
  fc of CCND2 (expression array): −1.057
Refseq NM_001769.2
  CD9 expression fc: 1.992
Refseq NM_001797.2
  CDH11 fc: −1.174
Refseq NM_001945.1
  HBEGF expression fc: 3.868
Refseq NM_001953.2, cultured human skeletal muscle
  ECGF1 expression fc: −4.299
Refseq NM_001964.2
  EGR1 expression fc: 3.749
Refseq NM_001987.4
  ETV6 fc: −1.1
Refseq NM_001990.2
  EYA3 expression fc: 2.572
Refseq NM_001995.2
  fc of ACSL1 (expression array): −1.015
Refseq NM_002005.2
  FES fc: −1.108
Refseq NM_002032.2, cultured human skeletal muscle
  FTH1 expression fc: −2.029
Refseq NM_002096.1
  GTF2F1 expression fc: 3.208
Refseq NM_002116.5
  HLA-A fc: −1.08
Refseq NM_002133.1, cultured human skeletal muscle
  HMOX1 expression fc: −1.924
Refseq NM_002145.3
  HOXB2 expression fc: 2.202
Refseq NM_002155.3
  HSPA6 expression fc: 1.994
Refseq NM_002166.4
  ID2 expression fc: 2.336
Refseq NM_002176.2
  fc of IFNB1 (expression array): −0.3894
Refseq NM_002196.2
  INSM1 expression fc: 1.801
Refseq NM_002198.1, cultured human skeletal muscle
  IRF1 expression fc: −2.643
Refseq NM_002201.4, cultured human skeletal muscle
  ISG20 expression fc: −2.94
Refseq NM_002204.1
  fc of ITGA3 (expression array): −1.041
Refseq NM_002229.2
  fc of JUNB (expression array): −1.063
Refseq NM_002230.1
  JUP expression fc: 3.172
Refseq NM_002266.2
  KPNA2 expression fc: 2.416
Refseq NM_002293.2
  fc of LAMC1 (expression array): −0.5108
Refseq NM_002340.3
  fc of LSS (expression array): −1.045
Refseq NM_002342.1
  LTBR fc: −1.155
Refseq NM_002345.3
  LUM fc: −1.126
Refseq NM_002346.1, cultured human skeletal muscle
  LY6E expression fc: −3.251
Refseq NM_002392.2
  fc of MDM2 (expression array): −0.588
Refseq NM_002462.2, cultured human skeletal muscle
  MX1 expression fc: −5.675
Refseq NM_002463.1, cultured human skeletal muscle
  MX2 expression fc: −4.066
Refseq NM_002469.1
  fc of MYF6 (expression array): −1.042
Refseq NM_002478.4
  MYOD1 fc: −1.113
Refseq NM_002505.3
  NFYA expression fc: 2.335
Refseq NM_002535.2, cultured human skeletal muscle
  OAS2 expression fc: −2.711
Refseq NM_002539.1
  ODC1 expression fc: 3.657
Refseq NM_002600.3
  PDE4B fc: −1.143
Refseq NM_002627.3
  PFKP fc: −1.106
Refseq NM_002648.2
  PIM1 expression fc: 2.215
Refseq NM_002685.2
  EXOSC10 expression fc: 1.937
Refseq NM_002687.3
  PNN expression fc: 1.949
Refseq NM_002742.2
  PRKD1 fc: −1.099
Refseq NM_002800.4, cultured human skeletal muscle
  PSMB9 expression fc: −3.137
Refseq NM_002852.2, cultured human skeletal muscle
  PTX3 expression fc: −2.744
Refseq NM_002862.3, cultured human skeletal muscle
  PYGB expression fc: −2.046
Refseq NM_002870.2
  fc of RAB13 (expression array): −1.032
Refseq NM_002897.3
  fc of RBMS1 (expression array): −0.6159
Refseq NM_002898.2
  fc of RBMS2 (expression array): −0.772
Refseq NM_002957.3
  RXRA fc: −1.132
Refseq NM_002982.3, cultured human skeletal muscle
  CCL2 expression fc: −2.681
Refseq NM_002985.2, cultured human skeletal muscle
  CCL5 expression fc: −2.528
Refseq NM_002993.2, cultured human skeletal muscle
  CXCL6 expression fc: −1.994
Refseq NM_002994.3, cultured human skeletal muscle
  CXCL5 expression fc: −2.469
Refseq NM_003039.1, cultured human skeletal muscle
  SLC2A5 expression fc: −1.958
Refseq NM_003059.2
  SLC22A4 fc: −1.134
Refseq NM_003068.3, cultured human skeletal muscle
  SNAI2 expression fc: −2.095
Refseq NM_003078.3
  fc of SMARCD3 (expression array): −1.022
Refseq NM_003089.4
  SNRNP70 expression fc: 1.885
Refseq NM_003107.2
  SOX4 expression fc: 1.809
Refseq NM_003119.2
  SPG7 fc: −1.113
Refseq NM_003135.1
  SRP19 expression fc: 1.866
Refseq NM_003162.2
  fc of STRN (expression array): −0.2348
Refseq NM_003246.2
  THBS1 fc: −1.092
Refseq NM_003335.2, cultured human skeletal muscle
  UBA7 expression fc: −2.561
Refseq NM_003358.1
  fc of UGCG (expression array): −0.8891
Refseq NM_003390.2
  WEE1 fc: −1.099
Refseq NM_003392.3
  WNT5A fc: −1.103
Refseq NM_003400.3
  fc of XPO1 (expression array): −1.04
Refseq NM_003407.2
  fc of ZFP36 (expression array): −1.044
Refseq NM_003439.1
  ZKSCAN1 fc: −1.082
Refseq NM_003492.1
  fc of Cxorfl2 (expression array): −1.02
Refseq NM_003564.1
  fc of TAGLN2 (expression array): −1.002
Refseq NM_003566.2
  fc of EEA1 (expression array): −0.963
Refseq NM_003641.3, cultured human skeletal muscle
  IFITM1 expression fc: −6.118
Refseq NM_003761.2
  fc of VAMP8 (expression array): −1.02
Refseq NM_003762.3
  fc of VAMP4 (expression array): −1.018
Refseq NM_003800.3
  RNGTT expression fc: 2.018
Refseq NM_003804.3
  RIPK1 fc: −1.103
Refseq NM_003810.2
  TNFSF10 fc: −1.127
Refseq NM_003820.2, cultured human skeletal muscle
  TNFRSF14 expression fc: −2.72
Refseq NM_003831.2
  fc of RIOK3 (expression array): −0.5229
Refseq NM_003844.2
  TNFRSF10A fc: −1.126
Refseq NM_003846.1
  PEX11B fc: −1.142
Refseq NM_003869.4, cultured human skeletal muscle
  CES2 expression fc: −2.043
Refseq NM_003879.3, cultured human skeletal muscle
  CFLAR expression fc: −1.94
Refseq NM_003887.2
  fc of ASAP2 (expression array): −1.028
Refseq NM_003914.2
  CCNA1 expression fc: 7.526
Refseq NM_003940.2
  fc of USP13 (expression array): −0.08799
Refseq NM_003995.3
  NPR2 fc: −1.166
Refseq NM_003999.1
  fc of OSMR (expression array): −0.7417
